The NIST ThermoML archive (doi:10.1021/je0497247)
± gives the expanded uncertainty stated by the source.

Experiment: wn = mass fraction of the nth substance listed
Conditions: 100 kPa, Liquid; for mass density: Pycnometric method; for viscosity: Capillary tube (Ostwald / Ubbelohde) method

Compound: O=C(O)c1ccccc1 [benzoic acid] + O
- thermal conductivity (373 K, w1 = 0.1): 0.659 ± 0.023 W/m/K
- thermal conductivity (374.6 K, w1 = 0.05): 0.671 ± 0.023 W/m/K
- mass density (379.1 K, w1 = 0.1): 974.1 ± 0.9 kg/m3
- mass density (379.6 K, w1 = 0.05): 963.7 ± 0.8 kg/m3
- viscosity (380.6 K, w1 = 0.1): 0.319 ± 0.004 mPa·s
- viscosity (381.1 K, w1 = 0.05): 0.288 ± 0.003 mPa·s
- thermal conductivity (391 K, w1 = 0.2): 0.649 ± 0.022 W/m/K
- mass density (392.9 K, w1 = 0.1): 961 ± 0.9 kg/m3
- thermal conductivity (393.6 K, w1 = 0.05): 0.675 ± 0.023 W/m/K
- thermal conductivity (393.6 K, w1 = 0.4): 0.575 ± 0.02 W/m/K
- thermal conductivity (393.9 K, w1 = 0.8): 0.199 ± 0.008 W/m/K
- thermal conductivity (394.2 K, w1 = 0.1): 0.662 ± 0.023 W/m/K
- mass density (394.6 K, w1 = 0.05): 951.9 ± 0.8 kg/m3
- viscosity (395.9 K, w1 = 0.1): 0.272 ± 0.003 mPa·s
- viscosity (397.6 K, w1 = 0.05): 0.256 ± 0.003 mPa·s
- viscosity (400.3 K, w1 = 1): 1.372 ± 0.037 mPa·s
- mass density (400.3 K, w1 = 0.2): 963.5 ± 1 kg/m3
- mass density (400.8 K, w1 = 0.4): 988.8 ± 1.4 kg/m3
- mass density (400.9 K, w1 = 0.8): 1050.1 ± 2.4 kg/m3
- mass density (401.3 K, w1 = 1): 1089.5 ± 3 kg/m3
- mass density (401.6 K, w1 = 0.6): 1013.8 ± 1.9 kg/m3
- viscosity (401.8 K, w1 = 0.2): 0.329 ± 0.004 mPa·s
- viscosity (402.3 K, w1 = 0.4): 0.501 ± 0.008 mPa·s
- viscosity (402.4 K, w1 = 0.8): 0.931 ± 0.022 mPa·s
- viscosity (403.1 K, w1 = 0.6): 0.708 ± 0.013 mPa·s
- thermal conductivity (406.8 K, w1 = 1): 0.139 ± 0.006 W/m/K
- thermal conductivity (409.2 K, w1 = 0.2): 0.65 ± 0.022 W/m/K
- thermal conductivity (409.2 K, w1 = 0.4): 0.571 ± 0.02 W/m/K
- viscosity (409.3 K, w1 = 1): 1.238 ± 0.032 mPa·s
- mass density (410.3 K, w1 = 1): 1080.2 ± 3.2 kg/m3
- thermal conductivity (410.9 K, w1 = 0.1): 0.67 ± 0.023 W/m/K
- mass density (412.1 K, w1 = 0.1): 945.4 ± 0.9 kg/m3
- thermal conductivity (413.2 K, w1 = 0.8): 0.197 ± 0.008 W/m/K
- thermal conductivity (413.3 K, w1 = 0.05): 0.676 ± 0.023 W/m/K
- mass density (413.4 K, w1 = 0.05): 935.5 ± 0.9 kg/m3
- mass density (413.8 K, w1 = 0.2): 950.8 ± 1.1 kg/m3
- mass density (414.8 K, w1 = 0.4): 975.1 ± 1.4 kg/m3
- mass density (414.8 K, w1 = 0.8): 1035 ± 2.4 kg/m3
- viscosity (415.1 K, w1 = 0.1): 0.236 ± 0.003 mPa·s
- mass density (415.9 K, w1 = 0.6): 999.2 ± 1.8 kg/m3
- viscosity (416.4 K, w1 = 0.05): 0.219 ± 0.003 mPa·s
- viscosity (416.8 K, w1 = 0.2): 0.274 ± 0.004 mPa·s
- viscosity (417.8 K, w1 = 0.4): 0.383 ± 0.006 mPa·s
- thermal conductivity (418 K, w1 = 0.2): 0.651 ± 0.022 W/m/K
- viscosity (418.3 K, w1 = 1): 1.117 ± 0.03 mPa·s
- viscosity (418.8 K, w1 = 0.8): 0.69 ± 0.016 mPa·s
- viscosity (418.9 K, w1 = 0.6): 0.547 ± 0.011 mPa·s
- mass density (419.3 K, w1 = 1): 1069.8 ± 3 kg/m3
- thermal conductivity (420.1 K, w1 = 0.4): 0.549 ± 0.019 W/m/K
- thermal conductivity (424.4 K, w1 = 1): 0.137 ± 0.006 W/m/K
- viscosity (427.2 K, w1 = 1): 1.026 ± 0.028 mPa·s
- mass density (428.2 K, w1 = 1): 1060.2 ± 3 kg/m3
- mass density (428.4 K, w1 = 0.1): 929.6 ± 1 kg/m3
- thermal conductivity (430.1 K, w1 = 0.4): 0.568 ± 0.02 W/m/K
- mass density (431.3 K, w1 = 0.8): 1018.8 ± 2.4 kg/m3
- viscosity (431.4 K, w1 = 0.1): 0.211 ± 0.003 mPa·s
- mass density (431.9 K, w1 = 0.2): 933.7 ± 1.1 kg/m3
- viscosity (432.1 K, w1 = 1): 0.953 ± 0.026 mPa·s
- mass density (432.1 K, w1 = 1): 1055 ± 3 kg/m3
- mass density (432.6 K, w1 = 0.4): 955 ± 1.5 kg/m3
- mass density (433.1 K, w1 = 0.05): 915.2 ± 1 kg/m3
- thermal conductivity (433.1 K, w1 = 0.8): 0.192 ± 0.008 W/m/K
- mass density (433.9 K, w1 = 0.6): 981.1 ± 1.9 kg/m3
- viscosity (434.3 K, w1 = 0.8): 0.542 ± 0.013 mPa·s
- viscosity (434.9 K, w1 = 0.2): 0.234 ± 0.003 mPa·s
- viscosity (435.6 K, w1 = 0.4): 0.309 ± 0.005 mPa·s
- viscosity (436.1 K, w1 = 0.05): 0.194 ± 0.003 mPa·s
- viscosity (436.9 K, w1 = 0.6): 0.399 ± 0.008 mPa·s
- mass density (444.9 K, w1 = 0.1): 912.6 ± 1.1 kg/m3
- thermal conductivity (444.9 K, w1 = 1): 0.134 ± 0.006 W/m/K
- viscosity (447.1 K, w1 = 1): 0.802 ± 0.022 mPa·s
- mass density (447.1 K, w1 = 1): 1036 ± 3 kg/m3
- viscosity (447.9 K, w1 = 0.1): 0.194 ± 0.003 mPa·s
- mass density (449.4 K, w1 = 0.8): 1000.5 ± 2.3 kg/m3
- mass density (450.8 K, w1 = 0.05): 896.3 ± 1.1 kg/m3
- thermal conductivity (451 K, w1 = 0.8): 0.188 ± 0.008 W/m/K
- mass density (452.1 K, w1 = 0.4): 932 ± 1.4 kg/m3
- viscosity (452.4 K, w1 = 0.8): 0.438 ± 0.01 mPa·s
- mass density (452.4 K, w1 = 0.2): 912 ± 1.2 kg/m3
- mass density (453.4 K, w1 = 0.6): 959.5 ± 1.9 kg/m3
- viscosity (453.8 K, w1 = 0.05): 0.177 ± 0.002 mPa·s
- viscosity (455.1 K, w1 = 0.4): 0.263 ± 0.004 mPa·s
- viscosity (455.4 K, w1 = 0.2): 0.206 ± 0.003 mPa·s
- viscosity (456.4 K, w1 = 0.6): 0.334 ± 0.006 mPa·s
- thermal conductivity (465.1 K, w1 = 1): 0.132 ± 0.006 W/m/K
